According to ChEMBL document CHEMBL1129857, “Synthesis, molecular modeling, and biology of the 1-benzyl derivative of APDC-an apparent mGluR6 selective ligand” (Bioorg Med Chem Lett, 1997):
Values belong to the compound of their own block, whether it stands above or below them.

How the values were obtained:
Type in all cases: functional
[1] = target: Metabotropic glutamate receptor 6 (Rattus norvegicus, UniProt P35349); assay: Tested for the agonistic activity against Metabotropic glutamate receptor 6
Sequence of Metabotropic glutamate receptor 6 (P35349 whole entry): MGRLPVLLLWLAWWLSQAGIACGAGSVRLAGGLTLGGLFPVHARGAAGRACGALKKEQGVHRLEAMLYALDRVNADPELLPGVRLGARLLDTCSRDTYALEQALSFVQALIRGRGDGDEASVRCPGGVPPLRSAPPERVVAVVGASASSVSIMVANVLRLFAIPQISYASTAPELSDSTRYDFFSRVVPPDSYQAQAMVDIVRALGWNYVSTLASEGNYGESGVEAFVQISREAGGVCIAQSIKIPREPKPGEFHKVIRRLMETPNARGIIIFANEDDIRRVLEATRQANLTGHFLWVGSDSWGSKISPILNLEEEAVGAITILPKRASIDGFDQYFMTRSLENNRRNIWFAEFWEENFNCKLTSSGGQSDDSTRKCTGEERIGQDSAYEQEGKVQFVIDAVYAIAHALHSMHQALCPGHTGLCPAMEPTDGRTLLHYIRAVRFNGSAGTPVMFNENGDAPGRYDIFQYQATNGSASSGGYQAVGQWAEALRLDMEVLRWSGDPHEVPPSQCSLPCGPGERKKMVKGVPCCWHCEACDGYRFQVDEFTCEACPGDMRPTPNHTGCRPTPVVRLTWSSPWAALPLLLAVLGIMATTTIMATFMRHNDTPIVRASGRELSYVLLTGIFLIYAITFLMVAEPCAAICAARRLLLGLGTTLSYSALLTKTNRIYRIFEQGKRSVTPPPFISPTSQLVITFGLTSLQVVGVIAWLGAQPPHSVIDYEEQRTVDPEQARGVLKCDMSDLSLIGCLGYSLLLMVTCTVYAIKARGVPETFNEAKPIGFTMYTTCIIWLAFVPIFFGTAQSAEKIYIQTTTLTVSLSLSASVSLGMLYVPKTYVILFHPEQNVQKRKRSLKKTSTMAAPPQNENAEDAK

[2] = target: T1, Metabotropic glutamate receptor 5 (Rattus norvegicus, UniProt P31424); assay: Tested for the agonistic activity against Metabotropic glutamate receptor 5
T1 sequence (P31424 whole entry): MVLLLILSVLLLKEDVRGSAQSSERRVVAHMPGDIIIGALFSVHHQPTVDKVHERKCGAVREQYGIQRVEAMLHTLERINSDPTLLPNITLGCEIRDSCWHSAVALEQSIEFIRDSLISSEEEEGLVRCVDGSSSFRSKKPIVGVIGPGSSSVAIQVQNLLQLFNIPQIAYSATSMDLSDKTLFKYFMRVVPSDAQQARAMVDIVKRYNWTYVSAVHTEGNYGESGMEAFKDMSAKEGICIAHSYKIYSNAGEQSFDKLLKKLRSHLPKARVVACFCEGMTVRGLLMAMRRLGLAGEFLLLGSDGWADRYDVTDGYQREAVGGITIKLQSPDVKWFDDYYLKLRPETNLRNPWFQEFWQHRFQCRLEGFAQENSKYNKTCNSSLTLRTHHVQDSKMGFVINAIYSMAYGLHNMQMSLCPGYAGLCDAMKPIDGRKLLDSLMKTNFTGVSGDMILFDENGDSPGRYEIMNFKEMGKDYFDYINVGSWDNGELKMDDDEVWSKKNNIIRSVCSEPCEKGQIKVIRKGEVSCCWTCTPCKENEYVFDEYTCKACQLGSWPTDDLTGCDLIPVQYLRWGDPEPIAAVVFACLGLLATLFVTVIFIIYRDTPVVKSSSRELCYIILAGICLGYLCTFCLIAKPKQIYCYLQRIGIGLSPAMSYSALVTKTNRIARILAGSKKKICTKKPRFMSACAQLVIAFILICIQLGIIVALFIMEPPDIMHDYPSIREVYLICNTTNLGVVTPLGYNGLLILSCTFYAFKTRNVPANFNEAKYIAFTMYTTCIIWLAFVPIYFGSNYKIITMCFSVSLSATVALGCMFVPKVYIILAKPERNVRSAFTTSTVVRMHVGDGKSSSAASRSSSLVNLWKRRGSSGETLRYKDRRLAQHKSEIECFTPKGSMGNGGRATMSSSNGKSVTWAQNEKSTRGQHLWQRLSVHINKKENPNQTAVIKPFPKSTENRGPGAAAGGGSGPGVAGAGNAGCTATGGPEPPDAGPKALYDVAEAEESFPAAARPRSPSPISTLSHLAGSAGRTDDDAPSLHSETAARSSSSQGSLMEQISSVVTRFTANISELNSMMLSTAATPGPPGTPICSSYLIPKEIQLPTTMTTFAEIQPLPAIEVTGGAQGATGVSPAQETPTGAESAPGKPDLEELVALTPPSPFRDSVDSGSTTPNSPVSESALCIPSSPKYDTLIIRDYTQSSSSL

[3] = target: T2, Metabotropic glutamate receptor 1 (Rattus norvegicus, UniProt P23385); assay: Tested for the agonistic activity against Metabotropic glutamate receptor 1; Not active
T2 sequence (P23385 whole entry): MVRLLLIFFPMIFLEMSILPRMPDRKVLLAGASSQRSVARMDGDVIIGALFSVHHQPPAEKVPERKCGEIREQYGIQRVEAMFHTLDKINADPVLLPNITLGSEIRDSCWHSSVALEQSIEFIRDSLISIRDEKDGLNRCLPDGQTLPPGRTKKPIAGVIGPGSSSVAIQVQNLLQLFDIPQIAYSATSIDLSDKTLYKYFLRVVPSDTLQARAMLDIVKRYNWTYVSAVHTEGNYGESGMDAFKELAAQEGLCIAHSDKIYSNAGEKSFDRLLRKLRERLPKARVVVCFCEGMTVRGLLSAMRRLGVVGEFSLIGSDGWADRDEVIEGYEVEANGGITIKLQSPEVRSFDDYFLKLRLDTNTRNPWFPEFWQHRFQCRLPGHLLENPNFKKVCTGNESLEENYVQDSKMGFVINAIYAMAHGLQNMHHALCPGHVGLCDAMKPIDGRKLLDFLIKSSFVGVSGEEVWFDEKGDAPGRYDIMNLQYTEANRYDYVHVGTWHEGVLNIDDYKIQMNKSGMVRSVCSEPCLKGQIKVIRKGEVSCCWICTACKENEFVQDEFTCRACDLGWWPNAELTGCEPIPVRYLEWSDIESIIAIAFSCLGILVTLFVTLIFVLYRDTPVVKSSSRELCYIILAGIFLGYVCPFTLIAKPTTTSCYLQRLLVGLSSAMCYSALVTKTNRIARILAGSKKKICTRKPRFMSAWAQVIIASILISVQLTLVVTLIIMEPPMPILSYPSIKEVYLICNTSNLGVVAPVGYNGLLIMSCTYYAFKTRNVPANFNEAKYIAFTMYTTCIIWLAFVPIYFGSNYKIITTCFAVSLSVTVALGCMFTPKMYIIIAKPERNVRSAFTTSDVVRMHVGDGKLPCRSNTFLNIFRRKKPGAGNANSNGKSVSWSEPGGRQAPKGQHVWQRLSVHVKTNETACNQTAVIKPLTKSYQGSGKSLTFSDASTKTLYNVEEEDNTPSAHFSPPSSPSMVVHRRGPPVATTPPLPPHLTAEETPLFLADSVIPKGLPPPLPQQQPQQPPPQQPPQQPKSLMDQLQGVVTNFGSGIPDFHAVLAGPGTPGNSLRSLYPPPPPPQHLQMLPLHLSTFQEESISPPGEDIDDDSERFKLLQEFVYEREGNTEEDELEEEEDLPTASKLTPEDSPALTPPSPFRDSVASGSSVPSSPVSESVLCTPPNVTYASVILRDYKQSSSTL

[4] = target: T1, Metabotropic glutamate receptor 5; assay: Tested for the agonistic activity against Metabotropic glutamate receptor 5; Not active
[5] = target: T3, Metabotropic glutamate receptor 2 (Rattus norvegicus, UniProt P31421); assay: Tested for the agonistic activity against Metabotropic glutamate receptor 2; Not active
T3 sequence (P31421 whole entry): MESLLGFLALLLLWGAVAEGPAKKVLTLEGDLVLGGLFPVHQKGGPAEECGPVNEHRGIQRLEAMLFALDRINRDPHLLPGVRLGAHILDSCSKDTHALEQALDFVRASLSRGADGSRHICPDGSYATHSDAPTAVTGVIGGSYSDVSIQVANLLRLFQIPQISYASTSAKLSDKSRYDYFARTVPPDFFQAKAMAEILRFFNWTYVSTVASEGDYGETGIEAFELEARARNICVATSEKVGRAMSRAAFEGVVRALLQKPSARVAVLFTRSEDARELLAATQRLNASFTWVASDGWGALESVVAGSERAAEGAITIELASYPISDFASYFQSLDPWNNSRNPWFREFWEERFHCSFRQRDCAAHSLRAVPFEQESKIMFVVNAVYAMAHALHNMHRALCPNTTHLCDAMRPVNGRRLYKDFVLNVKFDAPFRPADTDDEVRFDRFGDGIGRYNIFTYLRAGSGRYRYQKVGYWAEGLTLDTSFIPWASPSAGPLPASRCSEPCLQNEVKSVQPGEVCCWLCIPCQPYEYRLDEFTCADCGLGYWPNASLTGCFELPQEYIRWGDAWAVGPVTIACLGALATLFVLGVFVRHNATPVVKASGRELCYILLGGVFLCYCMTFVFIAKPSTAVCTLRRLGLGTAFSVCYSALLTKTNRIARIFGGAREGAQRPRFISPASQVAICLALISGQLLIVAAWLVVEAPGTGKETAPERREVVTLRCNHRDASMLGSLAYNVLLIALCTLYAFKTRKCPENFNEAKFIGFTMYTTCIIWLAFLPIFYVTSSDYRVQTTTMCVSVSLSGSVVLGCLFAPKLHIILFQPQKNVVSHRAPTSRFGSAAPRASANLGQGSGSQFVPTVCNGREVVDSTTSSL

[6] = target: T2, Metabotropic glutamate receptor 1; assay: Tested for the agonistic activity against Metabotropic glutamate receptor 1
[7] = target: T3, Metabotropic glutamate receptor 2; assay: Tested for the agonistic activity against Metabotropic glutamate receptor 2

SMILES: NC(CCP(=O)(O)O)C(=O)O (stereo not given)
EC50 [1]: 1 µM

SMILES: N[C@@]1(C(=O)O)CC[C@@H](C(=O)O)C1
EC50 [1]: 60 µM
EC50 [2]: 15 µM

SMILES: N[C@@]1(C(=O)O)CN[C@@H](C(=O)O)C1
EC50 [6]: 100 µM
EC50 [1]: 110 µM
EC50 [2]: 200 µM
EC50 [7]: 0.3 µM

More lines, now with the values ahead:

EC50 [1]: 1000 µM
EC50 [3]: Not Active
EC50 [4]: Not Active
EC50 [5]: Not Active
SMILES: O=C(N[C@@]1(C(=O)O)CN[C@@H](C(=O)O)C1)c1ccccc1

EC50 [6]: > 1000 µM
EC50 [1]: 20 µM
IC50 [2]: 600 µM
IC50 [7]: 200 µM
SMILES: N[C@]1(C(=O)O)C[C@H](C(=O)O)N(Cc2ccccc2)C1
